# From the OligoGym collection
# Oligonucleotides are given in HELM: sugar(base)linkage, 5' to 3'; d 2'-deoxyribose, r ribose, m 2'-O-methylribose, p phosphate. ss, as = sense and antisense strand
# Molecular target: UBE2K
# Assay: reporter assay of Huesken 2005
# Details: siRNA
# Note: test concentration or dose not given here.
row,Substance,normalised inhibition (eCFP-eYFP dual reporter)
1,RNA1{r(G)p.r(G)p.r(C)p.r(A)p.r(G)p.r(C)p.r(U)p.r(G)p.r(C)p.r(A)p.r(A)p.r(U)p.r(G)p.r(A)p.r(C)p.r(U)p.r(C)p.r(U)p.r(C)p.d(T)p.d(T)}|RNA2{r(G)p.r(A)p.r(G)p.r(A)p.r(G)p.r(U)p.r(C)p.r(A)p.r(U)p.r(U)p.r(G)p.r(C)p.r(A)p.r(G)p.r(C)p.r(U)p.r(G)p.r(C)p.r(C)p.d(C)p.d(A)}$$$RNA1{StrandType:ss}|RNA2{StrandType:as}$,57.6%
2,RNA1{r(G)p.r(G)p.r(C)p.r(A)p.r(G)p.r(C)p.r(U)p.r(G)p.r(C)p.r(A)p.r(G)p.r(A)p.r(G)p.r(C)p.r(C)p.r(A)p.r(G)p.r(A)p.r(U)p.d(T)p.d(T)}|RNA2{r(A)p.r(U)p.r(C)p.r(U)p.r(G)p.r(G)p.r(C)p.r(U)p.r(C)p.r(U)p.r(G)p.r(C)p.r(A)p.r(G)p.r(C)p.r(U)p.r(G)p.r(C)p.r(C)p.d(A)p.d(A)}$$$RNA1{StrandType:ss}|RNA2{StrandType:as}$,81.8%
3,RNA1{r(G)p.r(G)p.r(G)p.r(G)p.r(C)p.r(U)p.r(A)p.r(U)p.r(U)p.r(U)p.r(G)p.r(U)p.r(U)p.r(U)p.r(G)p.r(G)p.r(A)p.r(U)p.r(A)p.d(T)p.d(T)}|RNA2{r(U)p.r(A)p.r(U)p.r(C)p.r(C)p.r(A)p.r(A)p.r(A)p.r(C)p.r(A)p.r(A)p.r(A)p.r(U)p.r(A)p.r(G)p.r(C)p.r(C)p.r(C)p.r(C)p.d(T)p.d(G)}$$$RNA1{StrandType:ss}|RNA2{StrandType:as}$,81.2%
4,RNA1{r(G)p.r(G)p.r(U)p.r(U)p.r(U)p.r(A)p.r(U)p.r(C)p.r(A)p.r(C)p.r(U)p.r(A)p.r(A)p.r(A)p.r(A)p.r(U)p.r(A)p.r(U)p.r(G)p.d(T)p.d(T)}|RNA2{r(C)p.r(A)p.r(U)p.r(A)p.r(U)p.r(U)p.r(U)p.r(U)p.r(A)p.r(G)p.r(U)p.r(G)p.r(A)p.r(U)p.r(A)p.r(A)p.r(A)p.r(C)p.r(C)p.d(G)p.d(G)}$$$RNA1{StrandType:ss}|RNA2{StrandType:as}$,81.2%
5,RNA1{r(G)p.r(U)p.r(A)p.r(C)p.r(A)p.r(A)p.r(A)p.r(C)p.r(A)p.r(A)p.r(A)p.r(A)p.r(U)p.r(C)p.r(C)p.r(C)p.r(G)p.r(A)p.r(A)p.d(T)p.d(T)}|RNA2{r(U)p.r(U)p.r(C)p.r(G)p.r(G)p.r(G)p.r(A)p.r(U)p.r(U)p.r(U)p.r(U)p.r(G)p.r(U)p.r(U)p.r(U)p.r(G)p.r(U)p.r(A)p.r(C)p.d(T)p.d(G)}$$$RNA1{StrandType:ss}|RNA2{StrandType:as}$,73.9%
6,RNA1{r(G)p.r(U)p.r(A)p.r(G)p.r(U)p.r(A)p.r(G)p.r(C)p.r(A)p.r(A)p.r(A)p.r(U)p.r(C)p.r(A)p.r(G)p.r(U)p.r(A)p.r(C)p.r(A)p.d(T)p.d(T)}|RNA2{r(U)p.r(G)p.r(U)p.r(A)p.r(C)p.r(U)p.r(G)p.r(A)p.r(U)p.r(U)p.r(U)p.r(G)p.r(C)p.r(U)p.r(A)p.r(C)p.r(U)p.r(A)p.r(C)p.d(A)p.d(G)}$$$RNA1{StrandType:ss}|RNA2{StrandType:as}$,92.1%
7,RNA1{r(G)p.r(U)p.r(U)p.r(U)p.r(G)p.r(G)p.r(A)p.r(U)p.r(A)p.r(U)p.r(C)p.r(C)p.r(U)p.r(G)p.r(A)p.r(A)p.r(A)p.r(G)p.r(A)p.d(T)p.d(T)}|RNA2{r(U)p.r(C)p.r(U)p.r(U)p.r(U)p.r(C)p.r(A)p.r(G)p.r(G)p.r(A)p.r(U)p.r(A)p.r(U)p.r(C)p.r(C)p.r(A)p.r(A)p.r(A)p.r(C)p.d(A)p.d(A)}$$$RNA1{StrandType:ss}|RNA2{StrandType:as}$,87.1%
8,RNA1{r(U)p.r(A)p.r(C)p.r(A)p.r(A)p.r(A)p.r(C)p.r(A)p.r(A)p.r(A)p.r(A)p.r(U)p.r(C)p.r(C)p.r(C)p.r(G)p.r(A)p.r(A)p.r(A)p.d(T)p.d(T)}|RNA2{r(U)p.r(U)p.r(U)p.r(C)p.r(G)p.r(G)p.r(G)p.r(A)p.r(U)p.r(U)p.r(U)p.r(U)p.r(G)p.r(U)p.r(U)p.r(U)p.r(G)p.r(U)p.r(A)p.d(C)p.d(T)}$$$RNA1{StrandType:ss}|RNA2{StrandType:as}$,66.1%
9,RNA1{r(U)p.r(A)p.r(G)p.r(A)p.r(U)p.r(C)p.r(U)p.r(U)p.r(G)p.r(U)p.r(A)p.r(G)p.r(A)p.r(U)p.r(G)p.r(A)p.r(G)p.r(A)p.r(A)p.d(T)p.d(T)}|RNA2{r(U)p.r(U)p.r(C)p.r(U)p.r(C)p.r(A)p.r(U)p.r(C)p.r(U)p.r(A)p.r(C)p.r(A)p.r(A)p.r(G)p.r(A)p.r(U)p.r(C)p.r(U)p.r(A)p.d(C)p.d(T)}$$$RNA1{StrandType:ss}|RNA2{StrandType:as}$,85.7%
10,RNA1{r(U)p.r(A)p.r(G)p.r(U)p.r(A)p.r(G)p.r(C)p.r(A)p.r(A)p.r(A)p.r(U)p.r(C)p.r(A)p.r(G)p.r(U)p.r(A)p.r(C)p.r(A)p.r(A)p.d(T)p.d(T)}|RNA2{r(U)p.r(U)p.r(G)p.r(U)p.r(A)p.r(C)p.r(U)p.r(G)p.r(A)p.r(U)p.r(U)p.r(U)p.r(G)p.r(C)p.r(U)p.r(A)p.r(C)p.r(U)p.r(A)p.d(C)p.d(A)}$$$RNA1{StrandType:ss}|RNA2{StrandType:as}$,87.9%
11,RNA1{r(U)p.r(A)p.r(U)p.r(U)p.r(G)p.r(U)p.r(C)p.r(A)p.r(U)p.r(U)p.r(G)p.r(C)p.r(A)p.r(A)p.r(G)p.r(C)p.r(A)p.r(C)p.r(U)p.d(T)p.d(T)}|RNA2{r(A)p.r(G)p.r(U)p.r(G)p.r(C)p.r(U)p.r(U)p.r(G)p.r(C)p.r(A)p.r(A)p.r(U)p.r(G)p.r(A)p.r(C)p.r(A)p.r(A)p.r(U)p.r(A)p.d(A)p.d(T)}$$$RNA1{StrandType:ss}|RNA2{StrandType:as}$,89.2%
12,RNA1{r(U)p.r(C)p.r(C)p.r(A)p.r(G)p.r(A)p.r(C)p.r(A)p.r(C)p.r(A)p.r(C)p.r(C)p.r(A)p.r(U)p.r(A)p.r(U)p.r(G)p.r(A)p.r(A)p.d(T)p.d(T)}|RNA2{r(U)p.r(U)p.r(C)p.r(A)p.r(U)p.r(A)p.r(U)p.r(G)p.r(G)p.r(U)p.r(G)p.r(U)p.r(G)p.r(U)p.r(C)p.r(U)p.r(G)p.r(G)p.r(A)p.d(G)p.d(G)}$$$RNA1{StrandType:ss}|RNA2{StrandType:as}$,73.9%
13,RNA1{r(U)p.r(C)p.r(C)p.r(G)p.r(G)p.r(U)p.r(U)p.r(U)p.r(A)p.r(U)p.r(C)p.r(A)p.r(C)p.r(U)p.r(A)p.r(A)p.r(A)p.r(A)p.r(U)p.d(T)p.d(T)}|RNA2{r(A)p.r(U)p.r(U)p.r(U)p.r(U)p.r(A)p.r(G)p.r(U)p.r(G)p.r(A)p.r(U)p.r(A)p.r(A)p.r(A)p.r(C)p.r(C)p.r(G)p.r(G)p.r(A)p.d(C)p.d(C)}$$$RNA1{StrandType:ss}|RNA2{StrandType:as}$,73%
14,RNA1{r(U)p.r(C)p.r(U)p.r(U)p.r(G)p.r(U)p.r(A)p.r(G)p.r(A)p.r(U)p.r(G)p.r(A)p.r(G)p.r(A)p.r(A)p.r(U)p.r(U)p.r(U)p.r(U)p.d(T)p.d(T)}|RNA2{r(A)p.r(A)p.r(A)p.r(A)p.r(U)p.r(U)p.r(C)p.r(U)p.r(C)p.r(A)p.r(U)p.r(C)p.r(U)p.r(A)p.r(C)p.r(A)p.r(A)p.r(G)p.r(A)p.d(T)p.d(C)}$$$RNA1{StrandType:ss}|RNA2{StrandType:as}$,84.4%
15,RNA1{r(U)p.r(G)p.r(A)p.r(A)p.r(A)p.r(G)p.r(A)p.r(U)p.r(C)p.r(A)p.r(A)p.r(U)p.r(G)p.r(G)p.r(G)p.r(C)p.r(A)p.r(G)p.r(C)p.d(T)p.d(T)}|RNA2{r(G)p.r(C)p.r(U)p.r(G)p.r(C)p.r(C)p.r(C)p.r(A)p.r(U)p.r(U)p.r(G)p.r(A)p.r(U)p.r(C)p.r(U)p.r(U)p.r(U)p.r(C)p.r(A)p.d(G)p.d(G)}$$$RNA1{StrandType:ss}|RNA2{StrandType:as}$,57.3%
16,RNA1{r(U)p.r(G)p.r(A)p.r(A)p.r(G)p.r(G)p.r(A)p.r(G)p.r(G)p.r(A)p.r(A)p.r(G)p.r(A)p.r(U)p.r(A)p.r(C)p.r(C)p.r(A)p.r(A)p.d(T)p.d(T)}|RNA2{r(U)p.r(U)p.r(G)p.r(G)p.r(U)p.r(A)p.r(U)p.r(C)p.r(U)p.r(U)p.r(C)p.r(C)p.r(U)p.r(C)p.r(C)p.r(U)p.r(U)p.r(C)p.r(A)p.d(T)p.d(A)}$$$RNA1{StrandType:ss}|RNA2{StrandType:as}$,82.7%
17,RNA1{r(U)p.r(G)p.r(G)p.r(C)p.r(A)p.r(U)p.r(C)p.r(C)p.r(U)p.r(A)p.r(A)p.r(U)p.r(A)p.r(U)p.r(U)p.r(A)p.r(G)p.r(U)p.r(U)p.d(T)p.d(T)}|RNA2{r(A)p.r(A)p.r(C)p.r(U)p.r(A)p.r(A)p.r(U)p.r(A)p.r(U)p.r(U)p.r(A)p.r(G)p.r(G)p.r(A)p.r(U)p.r(G)p.r(C)p.r(C)p.r(A)p.d(T)p.d(A)}$$$RNA1{StrandType:ss}|RNA2{StrandType:as}$,61.6%
18,RNA1{r(U)p.r(G)p.r(G)p.r(G)p.r(C)p.r(A)p.r(G)p.r(C)p.r(U)p.r(G)p.r(C)p.r(A)p.r(A)p.r(U)p.r(G)p.r(A)p.r(C)p.r(U)p.r(C)p.d(T)p.d(T)}|RNA2{r(G)p.r(A)p.r(G)p.r(U)p.r(C)p.r(A)p.r(U)p.r(U)p.r(G)p.r(C)p.r(A)p.r(G)p.r(C)p.r(U)p.r(G)p.r(C)p.r(C)p.r(C)p.r(A)p.d(T)p.d(T)}$$$RNA1{StrandType:ss}|RNA2{StrandType:as}$,44.2%
19,RNA1{r(U)p.r(G)p.r(U)p.r(A)p.r(G)p.r(A)p.r(U)p.r(G)p.r(A)p.r(G)p.r(A)p.r(A)p.r(U)p.r(U)p.r(U)p.r(U)p.r(A)p.r(C)p.r(A)p.d(T)p.d(T)}|RNA2{r(U)p.r(G)p.r(U)p.r(A)p.r(A)p.r(A)p.r(A)p.r(U)p.r(U)p.r(C)p.r(U)p.r(C)p.r(A)p.r(U)p.r(C)p.r(U)p.r(A)p.r(C)p.r(A)p.d(A)p.d(G)}$$$RNA1{StrandType:ss}|RNA2{StrandType:as}$,89.5%
20,RNA1{r(U)p.r(G)p.r(U)p.r(U)p.r(U)p.r(G)p.r(G)p.r(A)p.r(U)p.r(A)p.r(U)p.r(C)p.r(C)p.r(U)p.r(G)p.r(A)p.r(A)p.r(A)p.r(G)p.d(T)p.d(T)}|RNA2{r(C)p.r(U)p.r(U)p.r(U)p.r(C)p.r(A)p.r(G)p.r(G)p.r(A)p.r(U)p.r(A)p.r(U)p.r(C)p.r(C)p.r(A)p.r(A)p.r(A)p.r(C)p.r(A)p.d(A)p.d(A)}$$$RNA1{StrandType:ss}|RNA2{StrandType:as}$,58.7%
